Results: patent US11116778B2, “Prodrugs of ALOX-15 inhibitors and methods of using the same” (EMPIRICO INC., priority 2019, dated 2021)

How the values were obtained:
[1] = molecular target: T1, human lipoxygenase (ALOX15 Active Human Recombinant Protein) (Homo sapiens, UniProt P16050); experiment: Recombinant human ALOX15 assay (DPPP fluorescence)
T1 sequence (P16050 1-662): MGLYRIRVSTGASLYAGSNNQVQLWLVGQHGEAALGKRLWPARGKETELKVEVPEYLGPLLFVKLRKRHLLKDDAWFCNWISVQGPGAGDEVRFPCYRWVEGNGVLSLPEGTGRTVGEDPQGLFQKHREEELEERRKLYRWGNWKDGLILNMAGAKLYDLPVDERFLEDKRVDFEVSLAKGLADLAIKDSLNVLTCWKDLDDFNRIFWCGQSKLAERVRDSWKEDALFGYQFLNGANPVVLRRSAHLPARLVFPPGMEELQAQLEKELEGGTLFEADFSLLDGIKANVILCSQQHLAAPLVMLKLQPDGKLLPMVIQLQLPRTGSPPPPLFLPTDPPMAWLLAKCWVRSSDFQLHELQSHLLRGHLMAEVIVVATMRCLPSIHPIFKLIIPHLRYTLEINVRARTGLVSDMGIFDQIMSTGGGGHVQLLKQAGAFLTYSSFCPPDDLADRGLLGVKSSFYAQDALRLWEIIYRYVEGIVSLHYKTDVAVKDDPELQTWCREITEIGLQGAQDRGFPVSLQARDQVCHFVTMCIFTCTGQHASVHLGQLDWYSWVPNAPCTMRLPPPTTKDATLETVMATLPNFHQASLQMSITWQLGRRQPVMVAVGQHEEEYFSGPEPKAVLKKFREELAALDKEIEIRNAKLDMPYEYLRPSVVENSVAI

[2] = system: POSTN mRNA; experiment: POSTN mRNA by RT-qPCR in human nasal epithelial primary cells; assay type: cell-based; conditions: 5 μM or 1 μM, 3 x 24 hours with 20 ng/mL IL-13
Method: Human nasal epithelial primary cells (HNEpC) (PromoCell GmbH, Heidelberg, Germany) were cultured according to the manufacturer in provided Primary Cell media in 24 well plates at a density of 25,000 cells per well. Cells were treated with 5 μM or 1 μM of compound 5 or vehicle only (water) in media containing 20 ng/mL IL-13 for 24 hours in a 37° C. cell culture incubator. The following day, media was replaced and fresh media containing 20 ng/mL IL-13 and compound 5 or vehicle was added to each well, then incubated again for 24 hours in a 37° C. cell culture incubator. The process was repeated once more for a 24-hour period.
ALOX15 and POSTN mRNA levels were measured by RT-qPCR. […] The level of ALOX15 mRNA from each sample was measured in triplicate by real-time qPCR on an Applied Biosystems 7500 Fast Real-Time PCR machine using the TaqMan Gene Expression Assay for human ALOX15 (ThermoFisher, assay #Hs00993765_g1). The level of PPIA mRNA was measured in biplex reactions using TaqMan Gene Expression Assay (ThermoFisher, assay #Hs99999904_ml) and used to determine relative ALOX15 mRNA levels in each well using the delta-delta Ct method. […] Relative POSTN mRNA levels were measured as above using TaqMan Gene Expression Assay specific for human POSTN mRNA (ThermoFisher, assay #Hs00170815_m1). […]

IC50 [1]: 32 nM | inhibition of ALOX15 ([1]; in the absence of treatment with phosphatase): No inhibition was observed
Structure (SMILES): O=C(Nc1ccc(F)cc1Cl)c1nn(COP(=O)(O)O)c(Cl)c1Cl [compound 5, (4,5-dichloro-3-((2-chloro-4-fluorophenyl)carbamoyl)-1H-pyrazol-1-yl)methyl dihydrogen phosphate]
relative level of POSTN mRNA versus vehicle (FIG. 7) [2]: lower
